Test results reported in ChEMBL document CHEMBL5543072, “Discovery of a novel lead characterized by a stilbene-extended scaffold against sepsis as soluble epoxide hydrolase inhibitors” (Eur J Med Chem, 2024).
Calls of active or inactive are those of the source. No cut-off for these calls is given here.

Experiments:
[1] = biological target: T1, Bifunctional epoxide hydrolase 2 (Mus musculus, UniProt P34914)
T1 sequence (P34914 whole entry): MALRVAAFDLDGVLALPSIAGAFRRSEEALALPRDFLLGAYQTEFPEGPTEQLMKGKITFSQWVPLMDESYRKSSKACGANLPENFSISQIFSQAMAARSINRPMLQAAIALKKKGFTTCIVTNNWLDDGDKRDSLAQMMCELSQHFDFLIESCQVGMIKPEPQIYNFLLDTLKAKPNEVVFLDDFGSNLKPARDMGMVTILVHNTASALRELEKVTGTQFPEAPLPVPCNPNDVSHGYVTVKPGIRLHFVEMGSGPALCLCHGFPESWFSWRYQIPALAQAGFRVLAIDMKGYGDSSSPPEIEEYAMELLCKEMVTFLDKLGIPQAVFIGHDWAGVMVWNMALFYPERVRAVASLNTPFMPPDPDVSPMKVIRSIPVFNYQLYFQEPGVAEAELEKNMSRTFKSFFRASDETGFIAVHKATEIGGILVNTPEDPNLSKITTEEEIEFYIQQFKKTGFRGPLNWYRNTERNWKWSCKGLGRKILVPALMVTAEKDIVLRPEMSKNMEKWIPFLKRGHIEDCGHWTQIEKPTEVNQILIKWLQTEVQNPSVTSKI

[2] = test system: Mus musculus; experiment: Protection against LPS-induced sepsis in C57BL/6J mouse model assessed as survival rate at 5 mg/kg, iv measured after 72 hrs relative to control; assay type: functional
[3] = test system: Mus musculus; experiment: Protection against LPS-induced sepsis in C57BL/6J mouse model assessed as […] at 5 mg/kg, iv measured after 32 hrs relative to control; assay type: functional
[4] = test system: Mus musculus; experiment: Protection against LPS-induced sepsis in C57BL/6J mouse model assessed as survival rate at 5 mg/kg, iv measured after 24 hrs relative to control; assay type: functional
[5] = test system: Mus musculus; experiment: Protection against LPS-induced sepsis in C57BL/6J mouse model assessed as survival rate at 5 mg/kg, iv measured after 48 hrs relative to control; assay type: functional
[6] = biological target: T2, Bifunctional epoxide hydrolase 2 (Homo sapiens, UniProt P34913)
T2 sequence (P34913 whole entry): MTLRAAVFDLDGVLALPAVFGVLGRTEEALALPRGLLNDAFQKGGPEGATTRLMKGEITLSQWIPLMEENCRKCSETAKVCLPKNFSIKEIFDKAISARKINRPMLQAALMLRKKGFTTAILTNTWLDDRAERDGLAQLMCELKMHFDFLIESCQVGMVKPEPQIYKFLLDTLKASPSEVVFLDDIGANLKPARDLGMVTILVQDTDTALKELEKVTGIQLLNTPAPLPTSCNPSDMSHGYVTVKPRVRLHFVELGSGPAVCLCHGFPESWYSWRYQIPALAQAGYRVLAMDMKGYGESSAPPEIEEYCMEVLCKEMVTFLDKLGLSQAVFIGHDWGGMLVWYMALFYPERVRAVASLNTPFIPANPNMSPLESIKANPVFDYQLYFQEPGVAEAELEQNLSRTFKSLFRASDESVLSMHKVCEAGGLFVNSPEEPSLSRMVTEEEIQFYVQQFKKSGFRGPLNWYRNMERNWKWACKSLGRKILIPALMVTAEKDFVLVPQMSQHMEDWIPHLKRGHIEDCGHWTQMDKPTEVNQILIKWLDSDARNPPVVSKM

[7] = Cytotoxicity against human HepG2 cells assessed as cell viability at 50 uM incubated for 48 hrs by CCK8 assay relative to control; assay type: toxicity, cell-based; conditions: read-out: Activity
[8] = Toxicity in LPS-induced sepsis C57BL/6J mouse model assessed as effect on survival rate at 0.5 to 5 mg/kg, ip measured upto 72 hrs; assay type: organism-based; conditions: in vivo, dose 0.5-5 mg/kg
[9] = Cytotoxicity in HEK293T cells assessed as cell viability at 5 uM incubated for 48 hrs by CCK8 assay relative to control; assay type: toxicity, cell-based, HEK-293T; conditions: human, read-out: Activity
[10] = Cytotoxicity against human HepG2 cells assessed as cell viability at 5 uM incubated for 48 hrs by CCK8 assay relative to control; assay type: toxicity, cell-based; conditions: read-out: Activity
[11] = Cytotoxicity in HEK293T cells assessed as cell viability at 50 uM incubated for 48 hrs by CCK8 assay relative to control; assay type: toxicity, cell-based, HEK-293T; conditions: human, read-out: Activity
[12] = test system: Mus musculus; experiment: Protection against LPS-induced sepsis in C57BL/6J mouse model assessed as delay in death time at 0.5 to 5 mg/kg, ip measured upto 72 hrs; assay type: functional, organism-based; conditions: dose 0.5-5 mg/kg

SMILES	IC50 [1]	further results
O=C(NCC1CCOCC1)Nc1cccc(/C=C/c2ccc3c(c2)OCO3)c1	2.74 nM	–
COc1cc(/C=C/c2ccc(NC(=O)NCC3CCN(C)CC3)cc2)cc(OC)c1	908 nM	–
COc1ccc(/C=C/c2ccc(NC(=O)NCC(C)C)cc2)cc1O	4.76 nM	–
O=C(NCC1CCOCC1)Nc1ccc(/C=C/c2cccc(NC(=O)c3ccccn3)c2)cc1	8.42 nM	–
COc1cc(/C=C/c2ccc(NC(=O)NCC(C)C)cc2)cc(OC)c1	1.92 nM	–
COc1cc(/C=C/c2cccc(NC(=O)NCC3CCOCC3)c2)cc(OC)c1	91.3 nM	–
CCC(=O)N1CCN(C(=O)Nc2ccc(/C=C/c3ccc4c(c3)OCO4)cc2)CC1	200 nM	–
CN1CCC(NC(=O)Nc2ccc(/C=C/c3ccc4c(c3)OCO4)cc2)CC1	2600 nM	–
CC(C)CNC(=O)Nc1ccc(/C=C/c2ccc3c(c2)OCO3)c(F)c1	6.72 nM	–
Cc1cc(/C=C/c2ccc3c(c2)OCO3)ccc1NC(=O)NCC(C)C	3.21 nM	–
O=C(Cc1ccc2ncccc2c1)Nc1cccc(/C=C/c2ccc(NC(=O)NCC3CCOCC3)cc2)c1	1.4 nM	survival at 5 mg/kg [2]: 0%; Activity [3]: 0%; survival at 5 mg/kg [4]: 80%; survival at 5 mg/kg [5]: 0%
CC[C@H](C)C(=O)N1CCC(NC(=O)Nc2ccc(OC(F)(F)F)c(F)c2)CC1	–	survival at 5 mg/kg [2]: 0%; survival at 5 mg/kg [4]: 30%; survival at 5 mg/kg [5]: 0%
O=C(NCC1CCOCC1)Nc1ccc(/C=C/c2ccc3c(c2)OCO3)cc1	1.63 nM	IC50 [6]: 4.78 nM; viability at 48 h, 50 µM [7]: 69%; Activity [8]: Non-Toxic; viability at 48 h, 5 µM [9]: 98.2%; viability at 48 h, 5 µM [10]: 82.8%; viability at 48 h, 50 µM [11]: 84.3%; Activity [12]: Active
COc1cc(/C=C/c2ccc(NC(=O)N(C)C)cc2)cc(OC)c1	5200 nM	–
CC(C)CNC(=O)Nc1ccc(/C=C/c2ccc3c(c2)OCO3)cc1F	1.24 nM	–
CCC(=O)N1CCC(NC(=O)Nc2ccc(/C=C/c3ccc4c(c3)OCO4)cc2)CC1	8.02 nM	–
COc1cc(/C=C/c2cccc(NC(=O)NCC(C)C)c2)cc(OC)c1	44.5 nM	–

SMILES	IC50 [1]	further results
O=C(Cc1ccncc1)Nc1cccc(/C=C/c2ccc(NC(=O)NCC3CCOCC3)cc2)c1	1.42 nM	–
O=C(Cc1ccccn1)Nc1cccc(NC(=O)c2ccc(NC(=O)NCC3CCOCC3)cc2)c1	67.4 nM	–
O=C(Cn1ccc2ccccc21)Nc1cccc(/C=C/c2ccc(NC(=O)NCC3CCOCC3)cc2)c1	1.26 nM	–
CC(C)CNC(=O)Nc1cccc(/C=C/c2ccc3c(c2)OCO3)c1	2.03 nM	–
COc1cc(/C=C/c2ccc(NC(=O)NCC3CCOCC3)cc2)cc(OC)c1	2.53 nM	–
Cc1cc(NC(=O)NCC(C)C)ccc1/C=C/c1ccc2c(c1)OCO2	3.23 nM	–
C[C@@H]1C[C@H]2[C@@H]3CCC4=CC(=O)C=C[C@]4(C)[C@@]3(F)[C@@H](O)C[C@]2(C)[C@@]1(O)C(=O)CO [DEXAMETHASONE]	–	survival at 5 mg/kg [2]: 100%; survival at 5 mg/kg [4]: 100%; survival at 5 mg/kg [5]: 100%
CN1CCN(C(=O)Nc2ccc(/C=C/c3ccc4c(c3)OCO4)cc2)CC1	2740 nM	–
O=C(Cc1cccnc1)Nc1cccc(/C=C/c2ccc(NC(=O)NCC3CCOCC3)cc2)c1	2.03 nM	survival at 5 mg/kg [2]: 0%; Activity [3]: 0%; survival at 5 mg/kg [4]: 70%; survival at 5 mg/kg [5]: 20%
O=C(Cc1ccccn1)Nc1ccc(/C=C/c2ccc(NC(=O)NCC3CCOCC3)cc2)cc1	3.45 nM	–
CC(C)CNC(=O)Nc1ccc(/C=C/c2ccc3c(c2)OCO3)c(Cl)c1	4.59 nM	–
CC(C)CNC(=O)Nc1ccc(/C=C/c2ccc3c(c2)OCO3)cc1	2.68 nM	–
O=C(NCC1CCOCC1)Nc1ccc(/C=C/c2cccc(C(=O)NCc3ccccn3)c2)cc1	5.78 nM	–
CC(C)CCNC(=O)Nc1cccc(/C=C/c2ccc3c(c2)OCO3)c1	23.3 nM	–
O=C(Cn1c2ccccc2c2ccccc21)Nc1cccc(/C=C/c2ccc(NC(=O)NCC3CCOCC3)cc2)c1	3.31 nM	–
COc1cc(/C=C/c2ccc(CNC(=O)NCC(C)C)cc2)cc(OC)c1	14.3 nM	–
CC(C)CCNC(=O)Nc1ccc(/C=C/c2ccc3c(c2)OCO3)cc1	1.22 nM	–
